Experimental data as given in patent US20240390521A1, “CHIMERIC MODIFIED ION CHANNELS AND USES THEREOF FOR TREATMENT OF TRIGEMINAL NERVE DISORDERS” (Kriya Therapeutics, Inc., priority 2023, published 2024).
Structures can show the parent of a compound that is named as a salt.

Columns and labels:
[1] = target: α7^L131G, Q139L, Y217F-GlyR LGIC (Homo sapiens, UniProt P36544, L131G/Q139L/Y217F); experiment: Agonist potency at the modified chimeric LGIC; format: cell-based
[2] = 28-day study: varenicline PK in blood samples; format: in vivo, rat
Description: A 28-day biodistribution/toxicity study was conducted.

[3] = Varenicline concentrations in blood, PFC and CSF after single oral administration; format: in vivo, rat; conditions: male rats
[4] = system: m-α7-GlyR ion channels in cultured hippocampal neurons; experiment: Sustained varenicline exposure of cultured hippocampal neurons expressing m-α7-GlyR; format: cell-based; conditions: varenicline 15 nM for 18 days; data not shown
rat IoN-CCI model = experiment: Rat IoN-CCI model of trigeminal neuralgia, von Frey filament escape threshold (ET); format: in vivo
Description: Infraorbital nerve (IoN) chronic constriction injury (IoN-CCI) is an art-recognized animal model of trigeminal neuralgia (Vos et al. J Neurosci 14 (5 Pt 1): 2708-2723, 1994).
Mechanical allodynia was measured using a von Frey filament assay to define the escape threshold [ET]) in the rat IoN-CCI model. The total study duration was 6 months with two intermittent time points (2-and 4-months). Behavioral efficacy, as assessed by ET, and transgene expression in the trigeminal ganglion were evaluated.
Twelve groups of male and female adult rats were treated. AAV5-m-α7-GlyR LGIC vectors were injected percutaneously into the left trigeminal ganglion whereas the right untreated trigeminal ganglion served as control.
Naïve animals (no IoN-CCI, no AAV5-m-α7-GlyR LGIC or varenicline dosing) served as intact controls for behavioral and molecular analysis.
Varenicline tartrate was administered orally. A tartrate correction factor of 1.71 was applied in dose formulations.
Efficacy presented below is a combination of all 3 time points (2, 4, and 6 months) for each treatment group.

[5] = system: m-α7-GlyR LGICs expressed in mouse cortical neurons; experiment: Evoked neuronal activity in mouse cortical neurons expressing m-α7-GlyR LGICs; format: cell-based; conditions: data not shown
CNS function = conditions: rat, in vivo
m-α7-GlyR LGIC = target: T1, m-α7-GlyR LGIC (Homo sapiens, UniProt P36544, L131G/Q139L/Y217F); experiment: Constitutive activity of m-α7-GlyR LGIC without varenicline; format: in vivo, rodents; conditions: absence of varenicline
T1 construct: expressed in transfected cells; host or cells: rodent neurons expressing the transgene (mouse cortical neurons, cultured hippocampal neurons; rat trigeminal ganglion after AAV5 injection)

Molecule: C[N+](C)(C)CCO [choline]
- EC50 [1]: > 50 µM

Molecule: c1cnc2cc3c(cc2n1)[C@@H]1CNC[C@H]3C1 [varenicline, 6,10-Methano-6H-pyrazino[2,3-h][3]benzazepine, 7,8,9,10-tetrahydro-5,8,14-triazatetracyclo[10.3.1.02,11.04,9]hexadeca-2,4,6,8,10-pentaene tartrate salt]
- decrease of varenicline level ([2]; 6 hours post-dose vs 2 hours, 1 mg/kg p.o.): approximately 50%
- concentration at 2 h ([2]; rat, blood, po, 2 hours post-dose, 1 mg/kg p.o., average across groups): ~480 nM
- concentration at 24 h ([2]; rat, blood, po, 24 hours post final dose, 1 mg/kg p.o. daily, average): 4.4 nM
- sex differences in plasma varenicline levels ([2]; rat, in vivo): no sex differences in plasma varenicline levels
- time of peak varenicline concentration in CSF [3]: 60 min
- time of peak varenicline concentration in PFC [3]: 90 min
- time of peak varenicline concentration in blood [3]: 60 min
- tachyphylaxis or down regulation of expressed m-α7-GlyR LGICs [4]: did not result in tachyphylaxis or down regulation
- improvement of pain sensitivity, single agent alone (rat IoN-CCI model; Group 6 varenicline alone, Group 7 AAV5-m-α7-GlyR LGIC (6×10^8 vg) alone, tartrate salt): neither varenicline alone nor AAV5-m-α7-GlyR LGIC alone (Groups 6 and 7, respectively) demonstrated improved pain sensitivity
- varenicline levels at the time of sample collection (rat IoN-CCI model; all animals receiving treatment): within predictable levels
- effect of activation by varenicline on evoked neuronal activity [5]: reversible inhibition of evoked neuronal activity
- treatment related changes in the neurological assessments (CNS function): no AAV5-m-α7-GlyR LGIC, varenicline or AAV5-m-α7-GlyR LGIC+varenicline related changes in the neurological assessments

B1: m-α7-GlyR LGIC: human chimeric ion channel: modified nicotinic α7 receptor binding domain and glycine channel ion pore domain; SEQ ID NO: 1 (protein)
chain: MRCSPGGVWLALAASLLHVSLQGEFQRKLYKELVKNYNPLERPVANDSQPLTVYFSLSLLQIMDVDEKNQVLTTNIWLQMSWTDHYLQWNVSEYPGVKTVRFPDGQIWKPDILLYNSADERFDATFHTNVGVNSSGHCLYLPPGIFKSSCYIDVRWFPFDVQHCKLKFGSWSYGGWSLDLQMQEADISGYIPNGEWDLVGIPGKRSERFYECCKEPFPDVTFTVTMRRRMGYYLIQMYIPSLLIVILSWISFWINMDAAPARVGLGITTVLTMTTQSSGSRASLPKVSYVKAIDIWMAVCLLFVFSALLEYAAVNFVSRQHKELLRFRRKRRHHKEDEAGEGRFNFSAYGMGPACLQAKDGISVKGANNSNTTNPPPAPSKSPEEMRKLFIQRAKKIDKISRIGFPMAFLIFNMFYWIIYKIVRREDVHNQ
- constitutive activity (m-α7-GlyR LGIC): no constitutive activity
